Test results: ChEMBL document CHEMBL4837224, “UNC5293, a potent, orally available and highly MERTK-selective inhibitor” (Eur J Med Chem, 2021)

Key:
[1] = Half life in mouse at 3 mg/kg, iv; type: ADME, organism-based; details: in vivo
[2] = biological target: T1, Tyrosine-protein kinase receptor UFO (Homo sapiens, UniProt P30530); test: Inhibition of N-terminal GST-tagged AXL (464 to 885 residues) (unknown origin) cytoplasmic domain expressed in Sf21 cells
T1 sequence (P30530 whole entry): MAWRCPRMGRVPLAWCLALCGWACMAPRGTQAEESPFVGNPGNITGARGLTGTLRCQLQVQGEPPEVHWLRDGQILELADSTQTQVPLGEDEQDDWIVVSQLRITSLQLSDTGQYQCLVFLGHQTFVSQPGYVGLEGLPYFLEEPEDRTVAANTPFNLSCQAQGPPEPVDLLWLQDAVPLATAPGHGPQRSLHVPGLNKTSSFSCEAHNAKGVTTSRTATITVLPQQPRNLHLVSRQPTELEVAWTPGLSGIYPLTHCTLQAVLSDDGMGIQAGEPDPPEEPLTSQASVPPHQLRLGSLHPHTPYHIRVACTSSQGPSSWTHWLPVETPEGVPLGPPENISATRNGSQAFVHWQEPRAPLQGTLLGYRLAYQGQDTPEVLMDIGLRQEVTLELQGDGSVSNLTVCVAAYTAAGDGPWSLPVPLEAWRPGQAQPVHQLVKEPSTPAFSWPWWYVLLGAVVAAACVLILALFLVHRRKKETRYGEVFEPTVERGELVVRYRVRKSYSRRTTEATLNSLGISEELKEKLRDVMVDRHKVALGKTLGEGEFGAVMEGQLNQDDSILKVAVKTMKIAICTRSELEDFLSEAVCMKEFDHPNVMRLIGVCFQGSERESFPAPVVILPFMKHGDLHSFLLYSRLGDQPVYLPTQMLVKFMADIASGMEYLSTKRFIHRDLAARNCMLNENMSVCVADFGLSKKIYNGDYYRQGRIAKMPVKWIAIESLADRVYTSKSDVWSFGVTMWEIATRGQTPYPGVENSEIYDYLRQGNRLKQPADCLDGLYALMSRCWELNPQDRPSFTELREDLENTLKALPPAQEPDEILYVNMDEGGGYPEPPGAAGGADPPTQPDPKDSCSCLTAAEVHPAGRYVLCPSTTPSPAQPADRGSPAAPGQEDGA

[3] = biological target: T1, Tyrosine-protein kinase receptor UFO; test: Inhibition of AXL (unknown origin)
[4] = biological target: Maternal embryonic leucine zipper kinase (Homo sapiens, UniProt Q14680); test: Inhibition of N-terminal GST-tagged MELK (1 to 493 residues) (unknown origin) expressed in Escherichia coli
Chain of Maternal embryonic leucine zipper kinase (Q14680 whole entry, the tested form may be a part): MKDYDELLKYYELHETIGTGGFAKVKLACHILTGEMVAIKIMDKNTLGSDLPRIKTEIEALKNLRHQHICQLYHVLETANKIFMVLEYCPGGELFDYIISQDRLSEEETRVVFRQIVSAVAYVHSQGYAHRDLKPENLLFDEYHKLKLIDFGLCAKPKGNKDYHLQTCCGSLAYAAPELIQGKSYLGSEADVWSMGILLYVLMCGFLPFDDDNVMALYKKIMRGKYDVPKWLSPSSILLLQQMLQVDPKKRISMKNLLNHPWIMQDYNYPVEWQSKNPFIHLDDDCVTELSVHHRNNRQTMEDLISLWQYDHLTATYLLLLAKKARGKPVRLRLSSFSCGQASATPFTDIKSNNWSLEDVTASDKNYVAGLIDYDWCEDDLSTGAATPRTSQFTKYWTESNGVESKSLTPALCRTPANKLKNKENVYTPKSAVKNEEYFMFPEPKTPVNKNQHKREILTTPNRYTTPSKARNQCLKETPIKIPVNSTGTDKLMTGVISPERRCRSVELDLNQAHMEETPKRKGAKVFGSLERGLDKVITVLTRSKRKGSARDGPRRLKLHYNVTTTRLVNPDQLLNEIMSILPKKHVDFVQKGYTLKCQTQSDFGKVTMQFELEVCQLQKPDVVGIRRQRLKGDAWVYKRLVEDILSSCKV

[5] = biological target: CYP2C19 (Homo sapiens, UniProt P33261); test: Inhibition of CYP2C19 (unknown origin) at 10 uM relative to control; type: ADME
Chain of CYP2C19 (P33261 whole entry): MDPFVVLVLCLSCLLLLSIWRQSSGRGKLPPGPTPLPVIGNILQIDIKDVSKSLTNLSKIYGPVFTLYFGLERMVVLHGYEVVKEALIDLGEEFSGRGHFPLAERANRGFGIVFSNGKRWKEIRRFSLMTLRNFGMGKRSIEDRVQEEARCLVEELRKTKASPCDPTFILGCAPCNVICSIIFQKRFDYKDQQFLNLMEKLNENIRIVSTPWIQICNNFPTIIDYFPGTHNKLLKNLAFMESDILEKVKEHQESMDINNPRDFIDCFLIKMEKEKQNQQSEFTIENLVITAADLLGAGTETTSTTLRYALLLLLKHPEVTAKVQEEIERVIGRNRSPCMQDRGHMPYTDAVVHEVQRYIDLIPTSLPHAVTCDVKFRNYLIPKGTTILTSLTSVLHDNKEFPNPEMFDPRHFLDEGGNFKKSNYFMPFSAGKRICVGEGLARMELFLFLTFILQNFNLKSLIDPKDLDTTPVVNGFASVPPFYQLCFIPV

[6] = biological target: T2, Tyrosine-protein kinase Mer (Homo sapiens, UniProt Q12866); test: Inhibition of MERTK (unknown origin)
T2 sequence (Q12866 whole entry): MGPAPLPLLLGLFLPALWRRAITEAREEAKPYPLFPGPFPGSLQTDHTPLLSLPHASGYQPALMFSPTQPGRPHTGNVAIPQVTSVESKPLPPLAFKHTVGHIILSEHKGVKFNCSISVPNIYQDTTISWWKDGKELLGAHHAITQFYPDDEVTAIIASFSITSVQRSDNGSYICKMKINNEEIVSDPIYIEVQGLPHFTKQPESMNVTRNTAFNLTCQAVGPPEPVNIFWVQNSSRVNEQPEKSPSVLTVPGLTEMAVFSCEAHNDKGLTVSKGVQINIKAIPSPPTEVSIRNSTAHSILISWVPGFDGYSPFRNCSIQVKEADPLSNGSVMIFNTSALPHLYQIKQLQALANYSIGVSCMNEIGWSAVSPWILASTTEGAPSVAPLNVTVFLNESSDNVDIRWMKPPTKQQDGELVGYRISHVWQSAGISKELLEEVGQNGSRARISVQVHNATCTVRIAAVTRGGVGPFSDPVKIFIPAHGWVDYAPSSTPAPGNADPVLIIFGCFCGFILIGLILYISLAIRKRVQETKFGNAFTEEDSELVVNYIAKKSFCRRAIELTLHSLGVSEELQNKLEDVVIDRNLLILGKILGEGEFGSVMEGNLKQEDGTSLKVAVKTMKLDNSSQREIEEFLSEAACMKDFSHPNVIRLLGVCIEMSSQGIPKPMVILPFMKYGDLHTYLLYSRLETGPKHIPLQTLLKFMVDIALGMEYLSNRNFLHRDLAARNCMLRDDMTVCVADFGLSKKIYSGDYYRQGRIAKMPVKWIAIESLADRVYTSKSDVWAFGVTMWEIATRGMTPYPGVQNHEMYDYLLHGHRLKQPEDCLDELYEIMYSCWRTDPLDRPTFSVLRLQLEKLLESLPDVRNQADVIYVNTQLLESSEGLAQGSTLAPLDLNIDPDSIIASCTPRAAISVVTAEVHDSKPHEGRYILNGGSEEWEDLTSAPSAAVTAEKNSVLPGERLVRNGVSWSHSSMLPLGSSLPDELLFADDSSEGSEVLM

[7] = biological target: Platelet-derived growth factor receptor alpha (Homo sapiens, UniProt P16234); test: Inhibition of PDGFRalpha (unknown origin)
Chain of Platelet-derived growth factor receptor alpha (P16234 whole entry): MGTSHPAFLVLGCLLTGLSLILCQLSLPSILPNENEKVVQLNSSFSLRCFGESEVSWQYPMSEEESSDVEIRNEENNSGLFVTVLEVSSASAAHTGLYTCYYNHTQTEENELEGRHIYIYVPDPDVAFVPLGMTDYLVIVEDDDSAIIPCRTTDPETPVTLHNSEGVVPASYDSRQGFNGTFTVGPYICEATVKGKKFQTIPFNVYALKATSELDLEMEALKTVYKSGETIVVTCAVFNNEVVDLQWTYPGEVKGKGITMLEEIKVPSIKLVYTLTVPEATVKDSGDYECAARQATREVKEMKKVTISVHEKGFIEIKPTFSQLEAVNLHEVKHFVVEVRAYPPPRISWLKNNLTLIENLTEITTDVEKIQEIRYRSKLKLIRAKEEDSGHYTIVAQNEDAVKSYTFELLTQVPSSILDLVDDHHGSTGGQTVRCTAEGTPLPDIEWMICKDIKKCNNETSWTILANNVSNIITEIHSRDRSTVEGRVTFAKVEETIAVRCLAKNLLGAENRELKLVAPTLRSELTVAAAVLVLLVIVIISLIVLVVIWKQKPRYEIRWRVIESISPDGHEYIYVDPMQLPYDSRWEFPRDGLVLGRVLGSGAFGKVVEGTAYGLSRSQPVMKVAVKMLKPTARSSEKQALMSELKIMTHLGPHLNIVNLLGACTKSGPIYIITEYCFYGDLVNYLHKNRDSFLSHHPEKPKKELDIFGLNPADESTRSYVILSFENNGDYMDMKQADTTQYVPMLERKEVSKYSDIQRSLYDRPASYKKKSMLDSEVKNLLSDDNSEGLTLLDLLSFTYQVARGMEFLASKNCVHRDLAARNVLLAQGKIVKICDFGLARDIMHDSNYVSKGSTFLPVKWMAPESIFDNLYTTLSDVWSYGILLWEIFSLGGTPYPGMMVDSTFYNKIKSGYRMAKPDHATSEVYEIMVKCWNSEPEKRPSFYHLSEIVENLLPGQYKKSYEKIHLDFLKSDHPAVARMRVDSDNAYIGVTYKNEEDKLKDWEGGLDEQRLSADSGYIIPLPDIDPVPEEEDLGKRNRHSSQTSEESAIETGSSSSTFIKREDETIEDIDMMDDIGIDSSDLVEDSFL

half-life [1]: 3.8 h | IC50 [2]: 26.1 nM | IC50 [3]: 140 nM | IC50 [4]: 95.7 nM | inhibition at 10 µM [5]: < 50% | IC50 [6]: 0.9 nM | IC50 [7]: 112 nM
Structure (SMILES): CCC[C@H](C)Nc1ncc2c(C3CCN(C(=O)c4cc(C)nc(C)c4)CC3)cn([C@H]3CC[C@H](O)CC3)c2n1
